Measurements from patent US9765115B2, “Inhibitors of metastasis, methods of generating such inhibitors and their therapeutic applications” (Board of Supervisors of Louisiana State University acting …, priority 2011, dated 2017).

Tests used:
Assay type in all cases: cell-based
PC-3-CTR-wt cells = assay: Matrigel in vitro invasion assay; details: 50 nM CT, 48 h
Experimental: Invasion experiments were conducted in Matrigel™ invasion chambers as previously described (Sabbisetti et al., 2005).
CT increases invasiveness, and even induces an invasive phenotype in non-invasive prostate cancer cells. The role of PDZ-binding motif in CT-stimulated invasion was examined. FIG. 2C depicts CTR-C PDZ-binding motif mutation and effects on cell invasion. PC-3V, PC-3 CTRwt and PC-3 CTRΔESS cells were added to upper insert of invasion chambers with or without 50 nM CT, and cells that passed through the Matrigel™ barrier were counted after 48 h. The results are expressed as mean number of invaded cells per 400× field ±SEM (n=6; *p<0.05 (PC-3V v PC-3CTR-wt); $ p<0.05 (PC-3CTR-wt v PC-3CTRΔESS); $$-p<0.05 (PC-3CTRwt+CT v PC-3CTRΔESS+CT) (one-way ANOVA and Newman-Keul's test)). Expression of CTRwt in PC-3 cells increased invasion by 2.5-fold (FIG. 2C).
As shown above, CTR binds to ZO-1 through PDZ interaction (i.e. PDZ ligand on C-tail of CTR binds to the PDZ domain of ZO-1). To attenuate this binding, ZO-1 was saturated with a small C-terminal peptide of CTR sequence containing the PDZ-binding motif. Since ZO-1 is an intracellular membrane protein, the interfering peptide was delivered inside the plasma membrane. It has been shown that trans-activating transcriptional activator (TAT) protein (86-mer polypeptide) from HIV-1 enters mammalian cells when added to the surrounding media (Frankel et al., 1988; Green et al., 1989). Certain small regions of such proteins (10-16-mers) called protein transduction domains (PTDs), also efficiently traverse biological membranes (Elliott et al., 1997). Therefore, a fusion peptide Pep 1 was synthesized of TAT-peptide sequences of HIV virus and CTR-C(N-[…]-C (SEQ ID NO:2), CTR-C sequence underlined). The first experiment was to see if Pep I binds to ZO-1 in reversible fashion. For this, amino acid Y in Pep I was labeled with ^125I, and the binding with ZO-1 analyzed in the presence/absence of unlabeled Pep I (1000×; 20 μM). PC-3CTR-ZO-1-MYC cells were first incubated with unlabeled Pep I or control peptide (20 μM) for 5 min. The cells were then incubated with ^125I-pep I or C for 25 min. The cells were then washed in IP buffer, treated with DSP, and lysed. ZO-1 IPs were obtained, fractionated on SDS-PAGE, and autoradiographed. […] Next, whether Pep I competes with CTR for ZO-1 binding was tested. For this, PC-3-CTR-wt cells were treated with CT (50 nM) and or Pep I (50 μM) for 15 min. The CTR IPs were then immunoblotted and probed for ZO-1 immunoreactivity. […] Next, the biological impact of this phenomenon was examined by testing the effect of Pep I on CTR-stimulated invasion.
The binding of ZO-1 and CTR can be attenuated by saturating ZO-1 with a small C-terminal peptide of CTR sequence containing the PDZ ligand. Since ZO-1 is an intracellular membrane protein, the interfering peptide must penetrate plasma membrane to interact with ZO-1. As discussed above, fusion peptides of small TAT peptides (12-mer) and six (Pep I) or eight amino acids (Pep II) of C-terminal of CTR were synthesized. Control peptides were TAT peptides (12-mer) containing random amino acid sequence of equivalent size (6-mer). […] Thus, these two peptides (sequences given below) could be used therapeutically to attenuate or inhibit metastasis in cancerous cells.

[1] = system: LNCaP, PC-3M and DU-145 cell lines; assay: Paracellular permeability (PCP), TRITC-dextran diffusion; details: 50 nM CT
Experimental: For PCP measurements, cells were grown to confluence on Transwell filters. Tetra methyl rhodamine-dextran (1 mg/ml, ˜4 kDa, Sigma) was added to the upper chamber. Fluorescence of the lower chamber medium was measured in Modulus Microplate Reader (Turner Biosystems) at various time intervals.
Whether CT produces similar effects in LNCaP, PC-3M and DU-145 cell lines, which endogenously express CTR, was examined as shown in FIG. 1A. FIGS. 9A-9B depict the effect of CT on tight junction (TJ) disruption as measured using TER and PCP in the three prostate cancer cell lines—LNCaP, PC-3M, and DU-145. Cells were serum-starved for 4 hours, then treated with and without 50 nM CT, before measuring TER as described above. In FIG. 9B, cells were treated with and without 50 nM CT, and PCP determined by diffusion of ˜4 kDa TRITC-conjugated dextran from the upper to the lower chamber in one hour. The results are expressed as μg/ml/hour of TRITC-Dextran diffused ±SEM (n=6; *p<0.05 (−CT v +CT, One way ANOVA and Newman-Keul's test)). FIG. 9C depicts effects of CT on cell invasion in the same three cell lines—PC-3M, LNCaP, and DU145. Cells were added to upper insert of invasion chambers with or without 50 nM CT, and cells that passed through the Matrigel™ barrier were counted after 48 h. The results are expressed as mean number of invaded cells per 400× field ±SEM (n=6; *p<0.05).

PC-3CTRwt cells = assay: Cell adhesion on culture dishes; details: 50 nM CT, 1 hour
Experimental: Confluent cultures of PC-31-CTR cells were tested for cell adhesion after treatment with diluent (C), CT (50 nM), mPKI (myristoylated PKA inhibitory peptide (100 nM) or mPKI+CT. The number of adherent cells was determined by absorbance after 1 hour and are shown in the right graph.
To understand the significance of CT-induced, PKA-dependent disassembly of TJs in PC cell adhesion and invasion, the action of CT was examined on TER, PCP, cell adhesion and invasion in PC-3CTRwt cells in the presence/absence of mPKI. […] Similarly, mPKI abrogated the actions of CT on PCP and invasion (FIGS. 20B and 20C respectively). Next, the adhesion of PC-3CTRwt cells was examined on culture dishes.

calcitonin [CT] was tested, and the “additional increase in invasion” value (PC-3-CTR-wt cells) was 2.5 fold, the PCP [1] was “increased PCP” and the “adhesion of the cells to plastic matrix” value (PC-3CTRwt cells) was “remarkable decline”.
